Data from patent publication US11279683B2, “Thiophene derivatives as antiviral agents” (ENYO PHARMA, priority 2016, dated 2022).

These molecules were tested on H1N1 (influenza A/New Caledonia/20/99) (assay: microbe, parasite or virus in culture). Conditions: not given.
Type: cell-based

| Compound | IC50 |
| --- | --- |
| O=C(Nc1ccc(Cl)cc1)c1c(NC(=O)C2CCCCC2C(=O)O)sc2c1CCC2 (stereo not drawn) [Compound 57, 2-[[3-[(4-Chlorophenyl)carbamoyl]-5,6-dihydro-4H-cyclopenta[b]thiophen-2-yl]carbamoyl]cyclohexane-cis-carboxylic acid] | 7.18 µM |

Same assay, conditions: Influenza A virus, H1N1, A549, 48 h

| Compound | IC50 |
| --- | --- |
| O=C(Nc1ccc(Cl)cc1)c1c(NC(=O)C2CCCCC2C(=O)O)sc2ccccc12 (stereo not shown) [Compound 41, 2-[[3-[(4-Chlorophenyl)carbamoyl]benzothiophen-2-yl]carbamoyl]cyclohexane carboxylic acid] | 3.53 µM |
| O=C(Nc1ccc(Cl)cc1)c1c(NC(=O)C2CCCCC2C(=O)O)sc2cscc12 (stereo not shown) [Compound 42, 2-[[3-[(4-Chlorophenyl)carbamoyl]thieno[3,4-b]thiophen-2-yl]carbamoyl]cyclohexanecarboxylic acid] | 3.08 µM |
| Cc1ccc(NC(=O)c2c(NC(=O)C3CCCCC3C(=O)O)sc3c2CCC3)cc1 (stereo not shown) [Compound 66, 2-[[3-(p-Tolylcarbamoyl)-5,6-dihydro-4H-cyclopenta[b]thiophen-2-yl]carbamoyl]cyclohexanecarboxylic acid] | 11.7 µM |
| Cc1cccc(NC(=O)c2c(NC(=O)C3CC=CCC3C(=O)O)sc3c2CCCC3)c1 (stereo not shown) [Compound 68, 6-[[3-(m-Tolylcarbamoyl)-4,5,6,7-tetrahydrobenzothiophen-2-yl]carbamoyl]cyclohex-3-ene-1-carboxylic acid] | 11.7 µM |
| Cc1cccc(NC(=O)c2c(NC(=O)C3CCCCC3C(=O)O)sc3c2CCCC3)c1 (stereo not shown) [Compound 69, 2-[[3-(m-Tolylcarbamoyl)-4,5,6,7-tetrahydrobenzothiophen-2-yl]carbamoyl]cyclohexanecarboxylic acid] | 13.9 µM |
| CCc1c(C)sc(NC(=O)C2CCCCC2C(=O)O)c1C(=O)Nc1cccc(Cl)c1 (stereo not shown) [Compound 70, 2-[[3-[(3-Chlorophenyl)carbamoyl]-4-ethyl-5-methyl-2-thienyl]carbamoyl]cyclohexanecarboxylic acid] | 14.7 µM |
| O=C(Nc1ccc(Cl)cc1)c1ccsc1NC(=O)C1C2CCC(CC2)C1C(=O)O (stereo not shown) [Compound 71, 2-[[3-[(4-Chlorophenyl)carbamoyl]-2-thienyl]carbamoyl]bicyclo[2.2.2]octane-3-carboxylic acid] | 12.2 µM |
| CC(C)c1cc(C(=O)Nc2ccccc2)c(NC(=O)C2CCCCC2C(=O)O)s1 (stereo not shown) [Compound 72, 2-[[5-Isopropyl-3-(phenylcarbamoyl)-2-thienyl]carbamoyl]cyclohexanecarboxylic acid] | 9.92 µM |
| CCc1c(C)sc(NC(=O)C2CCCCC2C(=O)O)c1C(=O)Nc1ccccc1 (stereo not shown) [Compound 73, 2-[[4-Ethyl-5-methyl-3-(phenylcarbamoyl)-2-thienyl]carbamoyl]cyclohexanecarboxylic acid] | 24.6 µM |
| O=C(Nc1ccccc1)c1c(NC(=O)C2CCCCC2C(=O)O)sc2c1CCC2 (stereo not shown) [Compound 74, 2-[[3-(Phenylcarbamoyl)-5,6-dihydro-4H-cyclopenta[b]thiophen-2-yl]carbamoyl]cyclohexanecarboxylic acid] | 12.4 µM |
| Cc1nccn1CC(=O)Nc1sc2c(c1C(=O)Nc1ccc(Cl)cc1)CCCC2 [Compound 75, N-(4-Chlorophenyl)-2-[[2-(2-methylimidazol-1-yl)acetyl]amino]-4,5,6,7-tetrahydrobenzothiophene-3-carboxamide] | 17.1 µM |
| COc1ccc(NC(=O)c2c(NC(=O)C3CCCCC3C(=O)O)sc3c2CCC3)cc1 (stereo not shown) [Compound 76, 2-[[3-[(4-Methoxyphenyl)carbamoyl]-5,6-dihydro-4H-cyclopenta[b]thiophen-2-yl]carbamoyl]cyclohexanecarboxylic acid] | 14.1 µM |
| O=C(Nc1cccc(C(F)(F)F)c1)c1c(NC(=O)C2CCCCC2C(=O)O)sc2c1CCC2 (stereo not shown) [Compound 77, 2-[[3-[[3-(Trifluoromethyl)phenyl]carbamoyl]-5,6-dihydro-4H-cyclopenta[b]thiophen-2-yl]carbamoyl]cyclohexanecarboxylic acid] | 6.78 µM |
| O=C(Cc1cnccn1)Nc1sc2c(c1C(=O)Nc1ccc(Cl)cc1)CCC2 [Compound 78, N-(4-chlorophenyl)-2-[(2-pyrazin-2-ylacetyl)amino]-5,6-dihydro-4H-cyclopenta[b]thiophene-3-carboxamide] | 1 µM |
| NS(=O)(=O)N1CCCCC1C(=O)Nc1sc2c(c1C(=O)Nc1ccc(Cl)cc1)CCC2 (stereo not shown) [Compound 80, N-[3-[(4-chlorophenyl)carbamoyl]-5,6-dihydro-4H-cyclopenta[b]thiophen-2-yl]-1-sulfamoyl-piperidine-2-carboxamide] | 2.25 µM |
| O=C(CC1CCOCC1)Nc1sc2c(c1C(=O)Nc1ccc(Cl)cc1)CCC2 [Compound 81, N-(4-chlorophenyl)-2-[(2-tetrahydropyran-4-ylacetyl)amino]-5,6-dihydro-4H-cyclopenta[b]thiophene-3-carboxamide] | 3.9 µM |
| NC(=O)N1CCOCC1C(=O)Nc1sc2c(c1C(=O)Nc1ccc(Cl)cc1)CCC2 (stereo not shown) [Compound 82, N3-[3-[(4-chlorophenyl)carbamoyl]-5,6-dihydro-4H-cyclopenta[b]thiophen-2-yl]morpholine-3,4-dicarboxamide] | 4.4 µM |

| Compound | IC50 |
| --- | --- |
| NS(=O)(=O)N1CCCC(C(=O)Nc2sc3c(c2C(=O)Nc2ccc(Cl)cc2)CCC3)C1 (stereo not shown) [Compound 83, N-[3-[(4-chlorophenyl)carbamoyl]-5,6-dihydro-4H-cyclopenta[b]thiophen-2-yl]-1-sulfamoyl-piperidine-3-carboxamide] | 5.05 µM |
| CC(=O)N1CCC1C(=O)Nc1sc2c(c1C(=O)Nc1ccc(Cl)cc1)CCC2 (stereo not shown) [Compound 84, 1-acetyl-N-[3-[(4-chlorophenyl)carbamoyl]-5,6-dihydro-4H-cyclopenta[b]thiophen-2-yl]azetidine-2-carboxamide] | 29.6 µM |
| CS(=O)(=O)N[C@@H]1CCCC[C@@H]1C(=O)Nc1sc2c(c1C(=O)Nc1ccc(Cl)cc1)CCC2 [Compound 85, N-(4-chlorophenyl)-2-[[(1S,2R)-2-(methanesulfonamido)cyclohexanecarbonyl]amino]-5,6-dihydro-4H-cyclopenta[b]thiophene-3-carboxamide] | 5.6 µM |
| CS(=O)(=O)N1CCOC(C(=O)Nc2sc3c(c2C(=O)Nc2ccc(Cl)cc2)CCC3)C1 (stereo not shown) [Compound 86, N-[3-[(4-chlorophenyl)carbamoyl]-5,6-dihydro-4H-cyclopenta[b]thiophen-2-yl]-4-methylsulfonyl-morpholine-2-carboxamide] | 6.3 µM |
| NS(=O)(=O)N1CCOC(C(=O)Nc2sc3c(c2C(=O)Nc2ccc(Cl)cc2)CCC3)C1 (stereo not shown) [Compound 87, N-[3-[(4-chlorophenyl)carbamoyl]-5,6-dihydro-4H-cyclopenta[b]thiophen-2-yl]-4-sulfamoyl-morpholine-2-carboxamide] | 6.75 µM |
| O=C(Nc1ccc(Cl)cc1)c1c(NC(=O)N2CCCCC2C(=O)O)sc2c1CCC2 (stereo not shown) [Compound 89, 1-[[3-[(4-chlorophenyl)carbamoyl]-5,6-dihydro-4H-cyclopenta[b]thiophen-2-yl]carbamoyl]piperidine-2-carboxylic acid] | 8.8 µM |
| NC(=O)N1CCCC(C(=O)Nc2sc3c(c2C(=O)Nc2ccc(Cl)cc2)CCC3)C1 (stereo not shown) [Compound 92, N3-[3-[(4-chlorophenyl)carbamoyl]-5,6-dihydro-4H-cyclopenta[b]thiophen-2-yl]piperidine-1,3-dicarboxamide] | 11.4 µM |
| CS(=O)(=O)N1CCOCC1C(=O)Nc1sc2c(c1C(=O)Nc1ccc(Cl)cc1)CCC2 (stereo not shown) [Compound 93, N-[3-[(4-chlorophenyl)carbamoyl]-5,6-dihydro-4H-cyclopenta[b]thiophen-2-yl]-4-methylsulfonyl-morpholine-3-carboxamide] | 12.7 µM |
| O=C(Nc1ccc(Cl)cc1)c1c(NC(=O)C2COC2)sc2c1CCC2 [Compound 94, N-[3-[(4-chlorophenyl)carbamoyl]-5,6-dihydro-4H-cyclopenta[b]thiophen-2-yl]oxetane-3-carboxamide] | 12.9 µM |
| CS(=O)(=O)N1CCCC(C(=O)Nc2sc3c(c2C(=O)Nc2ccc(Cl)cc2)CCC3)C1 (stereo not shown) [Compound 95, N-[3-[(4-chlorophenyl)carbamoyl]-5,6-dihydro-4H-cyclopenta[b]thiophen-2-yl]-1-methylsulfonyl-piperidine-3-carboxamide] | 13.7 µM |
| O=C(Nc1ccc(Cl)cc1)c1c(NC(=O)C2CCN2)sc2c1CCC2 (stereo not shown) [Compound 96, N-[3-[(4-chlorophenyl)carbamoyl]-5,6-dihydro-4H-cyclopenta[b]thiophen-2-yl]azetidine-2-carboxamide] | 14.1 µM |
| O=C(Nc1ccc(Cl)cc1)c1c(NC(=O)C2CCCC(C(=O)O)C2)sc2c1CCC2 (stereo not shown) [Compound 99, 3-[[3-[(4-chlorophenyl)carbamoyl]-5,6-dihydro-4H-cyclopenta[b]thiophen-2-yl]carbamoyl]cyclohexanecarboxylic acid] | 16.6 µM |
| CS(=O)(=O)N1CCCCC1C(=O)Nc1sc2c(c1C(=O)Nc1ccc(Cl)cc1)CCC2 (stereo not shown) [Compound 100, N-[3-[(4-chlorophenyl)carbamoyl]-5,6-dihydro-4H-cyclopenta[b]thiophen-2-yl]-1-methylsulfonyl-piperidine-2-carboxamide] | 16.6 µM |
| O=C1CC(C(=O)Nc2sc3c(c2C(=O)Nc2ccc(Cl)cc2)CCC3)CCN1 (stereo not shown) [Compound 101, N-[3-[(4-chlorophenyl)carbamoyl]-5,6-dihydro-4H-cyclopenta[b]thiophen-2-yl]-2-oxo-piperidine-4-carboxamide] | 19 µM |
| NS(=O)(=O)N1CCC1C(=O)Nc1sc2c(c1C(=O)Nc1ccc(Cl)cc1)CCC2 (stereo not shown) [Compound 102, N-[3-[(4-chlorophenyl)carbamoyl]-5,6-dihydro-4H-cyclopenta[b]thiophen-2-yl]-1-sulfamoyl-azetidine-2-carboxamide] | 20.9 µM |
| O=C(Nc1ccc(Cl)cc1)c1c(NC(=O)C2COCCN2)sc2c1CCC2 (stereo not shown) [Compound 103, N-[3-[(4-chlorophenyl)carbamoyl]-5,6-dihydro-4H-cyclopenta[b]thiophen-2-yl]morpholine-3-carboxamide] | 24.2 µM |

Each molecule was assayed on p62 (assay: p62 expression measurement). Conditions: not given.
Type: cell-based
Excerpt: The autophagy-inducing effect has been assessed by LC3 lipidation assay and by p62 expression measurement.

| Compound | p62 expression* |
| --- | --- |
| O=C(Nc1ccc(Cl)cc1)c1c(NC(=O)C2CCCCC2C(=O)O)sc2ccccc12 (stereo not shown) [Compound 41, 2-[[3-[(4-Chlorophenyl)carbamoyl]benzothiophen-2-yl]carbamoyl]cyclohexane carboxylic acid] | down |
| O=C(Nc1ccc(Cl)cc1)c1c(NC(=O)C2CCCCC2C(=O)O)sc2cscc12 (stereo not shown) [Compound 42, 2-[[3-[(4-Chlorophenyl)carbamoyl]thieno[3,4-b]thiophen-2-yl]carbamoyl]cyclohexanecarboxylic acid] | down |
| O=C(Nc1ccc(Cl)cc1)c1c(NC(=O)C2CCCCC2C(=O)O)sc2c1CCC2 (stereo not drawn) [Compound 57, 2-[[3-[(4-Chlorophenyl)carbamoyl]-5,6-dihydro-4H-cyclopenta[b]thiophen-2-yl]carbamoyl]cyclohexane-cis-carboxylic acid] | down |
